According to US11260050B2, “Combination of cotinine plus antioxidant for treatment-resistant depression and correction of astrocytes functional deficit induced by depression and other neuropathological” (UNIVERSIDAD SAN SEBASTIAN, priority 2017, dated 2022):

What was measured:
calcineurin A = assay: Western blot of calcineurin A in the hippocampus (Example 4); assay type: in vivo, Mice C57BL/6; details: conditioned mice after extinction; vs PBS-treated conditioned mice
Protocol: Three-month-old mice (n=5-6/condition) were weighed and assigned to treatment groups. Mice were treated with vehicle or drugs, starting two h after fear conditioning and daily after behavioral testing until euthanasia. Mice received daily treatments with 1. PBS (phosphate buffer saline, pH 7.4) via intranasal; 2. Cotinine (10 mg/ml) dissolved in PBS via intranasal (IN Cot, 24 μl); 3. Krill oil dissolved in PBS, via intranasal (48 mg/ml, 24 μl); 4. Cotinine (10 mg/ml) plus krill oil dissolved in PBS, via intranasal (48 mg/ml, 24 μl); 5. […] The dose of cotinine was ten times lower than the dose of oral cotinine promoting fear extinction in C57BL/6 mice.
After the behavioral testing, mice from all treatment groups were euthanized via cervical dislocation by a well-trained investigator. Brain regions of interest were dissected and stored at −20° C. for protein analyses. Each brain was divided into two parts, left and right hemispheres. […] The protein concentration of the supernatants was measured using the Bio-Rad protein assay (Bio-Rad, Hercules, Calif., USA). […] Membranes were washed with TBST and incubated with HRP-conjugated secondary antibodies (Bio-Rad) for 1 h at RT, washed with TBST and TBS, and images were acquired using My ECL imaging system and analyzed using the NIH Image J software.

GFAP = assay: Immunohistochemical analysis of GFAP expression, hippocampus and frontal cortex (Example 1); assay type: in vivo, C57BL/6 mice; details: RS mice treated with cotinine
Excerpt: After treatments, the hippocampus and frontal cortex were investigated for changes in neuronal and glia cells architecture by Luxol blue staining, and cresyl violet staining. Also, the expression levels of the astrocyte marker GFAP in cells of the same areas by immunohistochemistry.
After the behavioral testing, mice were euthanized and brains were removed and dissected. Each brain was divided into two parts, left and right hemispheres. The frontal cortex and hippocampus were dissected from left hemisphere on ice and quickly frozen for subsequent analyses at −80° C. The right hemispheres were post-fixed in 10% buffered formalin (pH7.4) for 48 hours, included in paraffin, sliced in 4 μm sections and mounted in slides for histological and immunohistochemical analysis. […]
Three digital images of the slides immunostained for GFAP immunoreactivity (IR) were obtained of the hippocampus and frontal cortex using a digital camera attached to an inverted microscope at 40× magnification (Micrometrics, MilesCo Scientific, Princeton, Minn., USA) operated by software Micrometrics (Micrometrics SE Premium). To quantitate GFAP immunoreactivity the area of immunostaining was delimited and quantitated using the ImageJ software, provided by the National Institute of Health (NIH, Bethesda, […]., USA).

[1] = test system: mice subjected to restraint stress; assay: Elevated plus maze after restraint stress (Example 1, Experiment 1); assay type: in vivo, C57BL/6 mice; details: RS mice, post-treatment with cotinine
Protocol: Mice were treated immediately after the 21 days of immobilization stress (6 h/day) until euthanasia. Mice (n=5-8/condition) received daily treatments with 1. PBS (phosphate buffer saline, pH 7.4) via intranasal (2×12 μl/nostril), 2. PBS via gavage (50 μl); 3. Cotinine dissolved in PBS via oral (gavage, (0.5 mg/kg; Cot 0.5); 4. Cotinine dissolved in PBS via intranasal (Cot IN, 10 mg/ml, 2×12 μl/nostril).
To induce chronic stress, the restraint stress paradigm was used as previously described. Mice are immobilized in 50 ml falcon plastic tubes that were attached to mouse cages. The immobilization proceeded during 6 h from 9:00 AM to 3:00 PM in absence of treatments. Tubes have holes in the opposite side of the tube to allow the animal breathing and urination. Mice were almost completely immobilized for 6 h/day for 21 days after which they were permitted freely to move, eat and drink.
Anxiety was assessed through the elevated plus maze (EPM). EPM is considered one of the best choices to test anxiolytic effects of drugs. This test is based on the observation that most of the time higher anxiety levels will diminish the time exploring new environments as a form to avoid danger (open arms).
To determine the level of anxiety, mice were tested in the EPM. […]

For `CN1C(=O)CC[C@H]1c1cccnc1` [Cotinine, (5S)-1-methyl-5-(3-pyridyl) pyrrolidin-2-one], the “calcineurin A levels in the hippocampus” value (calcineurin A) was “significantly different from PBS-treated conditioned mice”, the “level of GFAP+ cells in the hippocampus and cortex (qualitative analysis)” value (GFAP) was “recovery of this expression was observed” and the “locomotor activity (distance traveled) in the EPM” value ([1]; Tukey p<0.01) was “reduced significantly the locomotor activity in the RS mice”. The “rearing activity in the elevated plus maze” value ([1]; vs Ctrl non-restrained mice) was “did not show differences with Ctrl non-restrained mice”.
